Data published in paper PMC9866728, “Dosing Methods to Enable Cell-Based In Vitro Testing of Complex Substances: A Case Study with a PAH Mixture” (Toxics, 2022).
Where two headings read alike, the source gives them in different places.

What was measured:
[1] = O-ring loading rate constant, larger O-rings; ref Smith et al. 2010 [24]; cited from earlier work
[2] = Loading kinetics of silicone micro-O-rings from methanol PAH solution (GC-MS/MS); type: physicochemical
[3] = Recovery over time from exposure to cell culture media without cells (GC-MS/MS); type: physicochemical
[4] = Table S1; ref PubChem; cited from earlier work
[5] = Smith et al. O-Rings; ref Smith et al. 2010 [24]; cited from earlier work
[6] = loading rate constant, one-phase association (h^-1), 10 µg/mL PAH mix in methanol
[7] = one-phase association fit of nominal Csilicone (µg/mL per Eq 1), 10 µg/mL PAH mix in methanol
[8] = one-phase association fit of nominal Csilicone, 10 µg/mL PAH mix in methanol, 0-24 h
[9] = one-phase association fit, micro-O-ring absorption
[10] = MAF (400 ng/mL each PAH), one phase decay fit of nominal recovery
[11] = MAF (400 ng/mL each PAH), one phase decay fit of nominal recovery (text: ng/mL)
[12] = O-Rings (loaded in 10 µg/mL PAH solution), one phase association fit of nominal recovery
[13] = O-Rings, one phase association fit
[14] = O-Rings, one phase association fit (desorption into media)
[15] = Solvent Extract (DMSO, 15 ng/mL each PAH), one phase decay fit of nominal recovery
[16] = Solvent Extract (DMSO, 15 ng/mL each PAH), one phase decay fit of nominal recovery (text: ng/mL)
[17] = Solvent Extract, one phase decay fit

Structure (SMILES)	K Value [2, 6]	Plateau Value [2, 7]	Y0 [2, 8]	Half-time Value [2, 9]	Span Value [2, 9]	Tau Value [2, 9]	Y0 [3, 10]	Plateau [3, 11]	K ([3]; MAF, one phase decay fit)	Span ([3]; MAF, one phase decay fit)	Tau ([3]; MAF, one phase decay fit)	Plateau [3, 12]	Y0 [3, 12]	Half-time [3, 13]	Span [3, 13]	Tau [3, 13]	K [3, 14]	Y0 [3, 15]	Plateau [3, 16]	K [3, 17]	other results
c1ccc2c(c1)ccc1cc3c(ccc4ccccc43)cc12 [Dibenzo[a,h]anthracene]																					Smith et al. 2010 K Value [1]: 1.1; Half-time Value [2]: 3.094e-6; Plateau Value [2]: 0.033; Span Value [2]: 0.033; Tau Value [2]: 4.463e-6; Y0 [2]: 0; Half-time [3]: 1.539
c1ccc2cc3c(ccc4ccccc43)cc2c1 [Benzo[a]anthracene]																					Smith et al. 2010 K Value [1]: 1.38; Half-time Value [2]: 4.451; K Value [2]: 0.1557; Plateau Value [2]: 0.1684; Span Value [2]: 0.1684; Tau Value [2]: 6.421; Y0 [2]: 0; Half-time [3]: 2.255
Cc1cccc2ccccc12 [1-Methylnaphthalene]	26.6865	0.8912	0	0.02597	0.8912	0.03747	399.6	37.1	1.206	362.5	0.8293	1.035	-0.0496	1.691	1.085	2.439	0.41	14.94	2.307	0.9085	best-fit rate constants (micro-O-ring loading) ([2]; loading from methanol solution): 26.7 h⁻¹; LogKow (PubChem) [4]: 3.87; Span [3, 17]: 12.63; Tau [3, 17]: 1.101
c1cc2cccc3c4cccc5cccc(c(c1)c23)c54 [Perylene]																					Half-time Value [2]: 0.02047; K Value [2]: 33.856; Plateau Value [2]: 0.1047; Span Value [2]: 0.1047; Tau Value [2]: 0.02954; Y0 [2]: 0; Half-time [3]: 1.656
c1cc2c3c(cccc3c1)CC2 [Acenaphthene]	22.38	0.8224	0	0.03097	0.8224	0.04468	398.6	44.72	0.9374	353.9	1.067	0.8203	-0.03588	2.678	0.8562	3.863	0.2589	14.88	2.58	0.7259	Smith et al. 2010 K Value [1]: 1.8; LogKow (PubChem) [4]: 3.92; Span [3, 17]: 12.3; Tau [3, 17]: 1.378
c1ccc2cc3c(cc2c1)-c1cccc2cccc-3c12 [Benzo[k]fluoranthene]	29.8778	0.1081	0	0.0232	0.1081	0.03347	386	124.5	0.2609	261.5	3.833	0.7223	0.005418	1.391	0.7169	2.006	0.4984	15.74	4.199	0.1008	LogKow (PubChem) [4]: 6.11; Span [3, 17]: 11.54; Tau [3, 17]: 9.919
c1ccc2ccccc2c1 [Naphthalene]	33.9576	0.7013	0	0.02041	0.7013	0.02945	399.7	38.47	1.287	361.2	0.7773	1.084	-0.1564	0.378	1.24	0.5454	1.834	14.8	3.339	0.6384	Smith et al. 2010 K Value [1]: 2.38; K [5]: 3.55; Span [3, 17]: 11.46; Tau [3, 17]: 1.566
C1=Cc2cccc3cccc1c23 [Acenaphthylene]	22.7382	0.6656	0	0.03048	0.6656	0.04398	399.1	41.99	1.016	357.1	0.9842	0.6692	-0.08033	0.6114	0.7495	0.882	1.134	14.88	2.66	0.7341	Span [3, 17]: 12.22; Tau [3, 17]: 1.362
